Assay results taken from patent US10336746B1, “RAD51 inhibitors” (Cyteir Therapeutics, Inc., priority 2017, dated 2019).
Like-named read-outs stand apart in the source and are kept apart here.

Legend:
[1] = test system: Daudi cell line (AID positive); assay: Primary screening cell killing assay, Daudi cell line (AID positive); format: cell-based; conditions: Homo sapiens, 168 h, cell death on Day 7, Cell-Titer Glo
Outline: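 AID-positive Daudi cells, 1250 per well, were exposed to serially diluted compounds for 7 days at 37° C. Viability read by CellTiter-Glo luminescence; percent cell death and EC50 derived against untreated wells after media-blank subtraction.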

[2] = test system: WI-38 cells (AID negative); assay: Primary screening cell killing assay repeated in WI-38 cells (AID negative); format: cell-based; conditions: Homo sapiens, 168 h, cell death on Day 7, Cell-Titer Glo
Procedure: Primary screening was a phenotypic screen that utilized the synthetic lethal interaction between AID and RAD51 to identify compounds that were both potent and on target. AID expressing cells are dependent upon RAD51 for survival; inhibiting RAD51 in AID positive cells results in a cytotoxic effect.
Percent cell death and EC50 values were calculated by comparing the cell viability of the compound treated wells to the non-treated wells. Normalized RLU values were obtained by subtracting the media well values from each of the wells in the same column, and then dividing that value by the DMSO treated cells values. The percent kill was then calculated by subtracting the normalized RLU value from 1 and multiplying by 100. The average normalized percent kill value and standard error of the mean was then calculated. The kill values were then inputted into Prism with the corresponding standard errors. In Prism a non-linear regression line was plotted with the data points using a semi-log scale, and the EC50 value was calculated.

[3] = Bi-directional Caco-2 permeability; format: in vitro ADME; conditions: human; for efflux ratio at 90 min: Caco-2, read-out: BA/AB Ratio; for Papp A→B at 90 min: Caco-2, apical to basolateral, read-out: AB Papp (cm/sec × 10^6); for Papp A→B at 90 min / Papp B→A at 90 min: 37 C, up to 90 minutes; for Papp B→A at 90 min: Caco-2, basolateral to apical, read-out: BA Papp (cm/sec × 10^6)
Procedure: Bi-directional Caco-2 permeability was assayed. Caco-2 cells were seeded onto permeable polycarbonate supports and allowed to differentiate for about 3 weeks prior to being used in the assays. The cells were then exposed to the compounds from either the apical or basolateral sides and incubated at 37 C for up to 90 minutes under light agitation. Compound transport was then measured using LC/MS/MS analysis at 30, 60, and 90 minutes.

[4] = Human liver microsome stability; format: in vitro ADME; conditions: human liver microsomes; for half-life / microsomal CLint: 37° C., 45 minutes; for microsomal CLint: read-out: Clearance (μg/min/mg)
Procedure: The stability of the claimed compounds was determined in the presences of human liver microsomes. The compounds were incubated with the microsomes at 37° C. for 45 minutes. Samples were analyzed using LC-MS/MS. Data analysis included half-life, clearance rate, and the percentage of hepatic blood flow (% QH) for each of the compounds in the different species.

Daudi (Lymphoma) = assay: Cell line screen, Daudi; format: cell-based; conditions: Homo sapiens, AICDA Expression High
Procedure: (§1) The activity of the claimed compounds was measured in a variety of cell lines with different expression levels of activation induced cytidine deaminase (AICDA). The potency assay was repeated in all of the listed cell lines and the EC50 values recorded.

WSU-FSCCL (Lymphoma) = assay: Cell line screen, WSU-FSCCL; format: cell-based; conditions: AICDA Expression Negative
Procedure: as §1

U-698-M (Lymphoma) = assay: Cell line screen, U-698-M; format: cell-based; conditions: AICDA Expression High
Procedure: as §1

CCRF-SB (Leukemia) = assay: Cell line screen, CCRF-SB; format: cell-based; conditions: Homo sapiens, AICDA Expression High
Procedure: as §1

KYSE-70 (Head and Neck) = assay: Cell line screen, KYSE-70; format: cell-based; conditions: Homo sapiens, AICDA Expression Low
Procedure: as §1

KG-1 (Leukemia) = assay: Cell line screen, KG-1; format: cell-based; conditions: AICDA Expression Negative
Procedure: as §1

KYSE-510 (Head and Neck) = assay: Cell line screen, KYSE-510; format: cell-based; conditions: Homo sapiens, AICDA Expression Negative
Procedure: as §1

TOV-1120D (Ovary) = assay: Cell line screen, TOV-1120D; format: cell-based; conditions: AICDA Expression Negative
Procedure: as §1

OV56 (Ovary) = assay: Cell line screen, OV56; format: cell-based; conditions: AICDA Expression Low
Procedure: as §1

[5] = test system: ARPE19/HPV16 (HPV Immortalized RPE); assay: Cell line screen, ARPE19/HPV16; format: cell-based; conditions: ARPE-19, AICDA Expression Negative
Procedure: as §1

[6] = test system: WI-38 (Normal Human Lung Fibroblast); assay: Cell line screen, WI-38; format: cell-based; conditions: AICDA Expression Negative
Procedure: as §1

[7] = Pharmacokinetic (PK) study, plasma by LC-MS; format: in vivo, Rat; conditions: po @ 80 mg/kg (30% PEG400, 10% Vitamin E TPGS in water); for half-life: plasma
Procedure: PK studies in mice were used to determine the fate of the compounds in a whole organism. Rats were treated with the compounds either orally of via IV at the indicated doses and followed for up to 24 hours. Plasma samples were taken at different time points and analyzed by LC-MS.

[8] = Caco-2, Caco-2, AB direction, read-out: AB Recovery %
[9] = Caco-2, Caco-2, BA direction, read-out: BA Recovery %

recovery at 90 min [3, 8] [%] | recovery at 90 min [3, 9] [%] | efflux ratio at 90 min [3] | Papp A→B at 90 min [3] [×10⁻⁶ cm/s] | Papp B→A at 90 min [3] [×10⁻⁶ cm/s] | SMILES | EC50 [1] [µM] | EC50 [2] [µM] | further results
55.6 | 85.5 | 3.1 | 3.1 | 9.6 | CC(C)OC(=O)N[C@@H]1CC[C@@H](c2ncc(-c3ccc(NC(=O)NCc4ccccc4)cc3S(=O)(=O)NC(C)(C)C)s2)OC1 [Ex. 59A] | 0.1 to 1 | > 1 | 
56.2 | 82 | 2.1 | 4.6 | 9.7 | CC(C)OC(=O)N[C@H]1CC[C@H](c2ncc(-c3ccc(NC(=O)NCc4ccccc4)cc3S(=O)(=O)NC(C)(C)C)s2)OC1 [Ex. 59B] | ≤ 0.1 | > 1 | 
55.3 | 86 | 0.9 | 12 | 11.2 | CC(C)OC(=O)Nc1ccc(-c2cnc([C@@H]3CC[C@@H](NC(=O)OC(C)C)CO3)s2)c(S(=O)(=O)NC(C)(C)C)c1 [Ex. 60A] | > 1 | > 1 | 
51.2 | 84.3 | 1.2 | 11.6 | 13.5 | CC(C)OC(=O)Nc1ccc(-c2cnc([C@H]3CC[C@H](NC(=O)OC(C)C)CO3)s2)c(S(=O)(=O)NC(C)(C)C)c1 [Ex. 60B] | 0.1 to 1 | > 1 | 

Second part, the compound before the results:

SMILES | recovery at 90 min [3, 8] [%] | recovery at 90 min [3, 9] [%] | efflux ratio at 90 min [3] | Papp A→B at 90 min [3] [×10⁻⁶ cm/s] | Papp B→A at 90 min [3] [×10⁻⁶ cm/s] | EC50 [1] [µM] | EC50 [2] [µM] | further results
CC(C)OC(=O)N[C@H]1CC[C@H](c2ncc(-c3ccc(NC(=O)NCc4ccccn4)cc3S(=O)(=O)NC(C)(C)C)s2)CC1 [Ex. 29, isopropyl ((1r,4r)-4-(5-(2-(N-(tert-butyl)sulfamoyl)-4-(3-(pyridin-2-ylmethyl)ureido)phenyl)thiazol-2-yl)cyclohexyl)carbamate] | 93.9 | 90.9 | 2.2 | 10.9 | 24.1 | ≤ 0.1 | > 1 | % QH (percentage of hepatic blood flow) [4]: 78.8%; half-life [4]: 0.342 h; microsomal CLint [4]: 68 µL/min/mg; EC50 (Daudi (Lymphoma)): 0.043 µM; EC50 (WSU-FSCCL (Lymphoma)): 0.067 µM; EC50 (U-698-M (Lymphoma)): 0.113 µM; EC50 (CCRF-SB (Leukemia)): 1.28 µM; EC50 (KYSE-70 (Head and Neck)): 4.66 µM; EC50 (KG-1 (Leukemia)): > 10 µM; EC50 (KYSE-510 (Head and Neck)): > 10 µM; EC50 (TOV-1120D (Ovary)): 9.17 µM; EC50 (OV56 (Ovary)): 9.09 µM; EC50 [5]: > 10 µM; EC50 [6]: > 10 µM; F (%) @ 5 mg/kg ([7]; Rat Female): 8.39%; F (%) @ 5 mg/kg ([7]; Rat Male): 3.69%; half-life ([7]; Rat Female): 4.66 h; half-life ([7]; Rat Male): 3.97 h
CC(C)OC(=O)N[C@H]1CC[C@H](c2ncc(-c3ccc(NC(=O)NCc4ncccc4F)cc3S(=O)(=O)NC(C)(C)C)s2)CC1 [Ex. 31, isopropyl ((1r,4r)-4-(5-(2-(N-(tert-butyl)sulfamoyl)-4-(3-((3-fluoropyridin-2-yl)methyl)ureido)phenyl)thiazol-2-yl)cyclohexyl)carbamate] | 70.5 | 92.3 | 1.1 | 12.8 | 13.6 | ≤ 0.1 | > 1 | % QH (percentage of hepatic blood flow) [4]: 77.3%; half-life [4]: 0.373 h; microsomal CLint [4]: 61.9 µL/min/mg; EC50 (Daudi (Lymphoma)): 0.02 µM; EC50 (WSU-FSCCL (Lymphoma)): < 0.04 µM; EC50 (U-698-M (Lymphoma)): 0.031 µM; EC50 (CCRF-SB (Leukemia)): 2.16 µM; EC50 (KYSE-70 (Head and Neck)): 4.7 µM; EC50 (KG-1 (Leukemia)): 8.79 µM; EC50 (KYSE-510 (Head and Neck)): > 10 µM; EC50 [5]: > 10 µM; EC50 [6]: > 10 µM; F (%) @ 5 mg/kg ([7]; Rat Female): 2.77%; F (%) @ 5 mg/kg ([7]; Rat Male): 1.49%; half-life ([7]; Rat Female): 4.75 h; half-life ([7]; Rat Male): 3.79 h
C[C@@H](NC(=O)Nc1ccc(-c2cnc(C3CCC(NC(=O)OC4COC4)CC3)s2)c(S(=O)(=O)NC(C)(C)C)c1)c1ccccc1 (stereo partly drawn) [Ex. 52, oxetan-3-yl ((1R,4r)-4-(5-(2-(N-(tert-butyl)sulfamoyl)-4-(3-((R)-1-phenylethyl)ureido)phenyl)thiazol-2-yl)cyclohexyl)carbamate] | 64.1 | 91.7 | 1.5 | 7.4 | 10.9 | ≤ 0.1 | > 1 | 
CC(C)(C)NS(=O)(=O)c1cc(NC(=O)NCc2ccccc2F)ccc1-c1cnc(C2CCC(NC(=O)OC3COC3)CC2)s1 (stereo not shown) [Ex. 53, oxetan-3-yl ((1r,4r)-4-(5-(2-(N-(tert-butyl)sulfamoyl)-4-(3-(2-fluorobenzyl)ureido)phenyl)thiazol-2-yl)cyclohexyl)carbamate] | 63.1 | 90.9 | 1 | 9.3 | 9.7 | ≤ 0.1 | > 1 | 
C[C@H](NC(=O)Nc1ccc(-c2cnc(C3CCC(NC(=O)OC4COC4)CC3)s2)c(S(=O)(=O)NC(C)(C)C)c1)c1ccccc1F (stereo partly drawn) [Ex. 55, oxetan-3-yl ((1S,4r)-4-(5-(2-(N-(tert-butyl)sulfamoyl)-4-(3-((S)-1-(2-fluorophenyl)ethyl)ureido)phenyl)thiazol-2-yl)cyclohexyl)carbamate] | 65.2 | 83.8 | 1.1 | 6.5 | 7 | ≤ 0.1 | > 1 | 
CC(C)OC(=O)N[C@H]1CC[C@H](c2nc(F)c(-c3ccc(NC(=O)NCc4ccccc4)cc3S(=O)(=O)NC(C)(C)C)s2)CC1 [Ex. 57, trans-isopropyl N-[4-[5-[4-(benzylcarbamoylamino)-2-(tert-butylsulfamoyl)phenyl]-4-fluoro-thiazol-2-yl]cyclohexyl]carbamate] | 61.9 | 86.8 | 2.7 | 1.3 | 3.5 | ≤ 0.1 | > 1 | 
CC(C)OC(=O)Nc1ccc(-c2sc(C3CCC(NC(=O)OC(C)C)CC3)nc2F)c(S(=O)(=O)NC(C)(C)C)c1 (stereo not shown) [Ex. 58, isopropyl ((1r,4r)-4-(5-(2-(N-(tert-butyl)sulfamoyl)-4-((isopropoxycarbonyl)amino)phenyl)-4-fluorothiazol-2-yl)cyclohexyl)carbamate] | 52.3 | 83.5 | 0.7 | 5.1 | 3.4 | 0.1 to 1 | > 1 | 
CC(C)OC(=O)N[C@@H]1CC[C@@H](c2ncc(-c3ccc(NC(=O)NCc4ccccc4)cc3S(=O)(=O)NC(C)(C)C)s2)NC1 [Ex. 64, isopropyl ((3R,6S)-6-(5-(4-(3-benzylureido)-2-(N-(tert-butyl)sulfamoyl)phenyl)thiazol-2-yl)piperidin-3-yl)carbamate] | 79.7 | 95.9 | 12.5 | 2.2 | 27.4 | ≤ 0.1 | > 1 | 
